Reference: US8592422B2, “Bicyclic triazole and pyrazole lactams as allosteric modulators of mGluR5 receptors” (Vanderbilt University, priority 2010, dated 2013)

molecular target: T1, human mGluR5a receptor (Homo sapiens, UniProt P41594); test: Cell-based functional Ca2+ mobilization assay (FDSS), potentiation of glutamate EC20 response; settings: EC50 (nM), HEK cells transfected with human mGluR5 (H10H or H12H); in presence of EC20 glutamate
T1 construct: cDNA subcloned into pcDNA3.1(-)
How it was run: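 HEK293A cells stably expressing human mGluR5a (H10H or H12H clones), plated overnight in glutamate-glutamine-free medium, loaded with Ca2+-sensitive dye (e.g. Fluo-4) and read on FDSS.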

T1 sequence (P41594 21-1180 isoform P41594-2 limits assumed): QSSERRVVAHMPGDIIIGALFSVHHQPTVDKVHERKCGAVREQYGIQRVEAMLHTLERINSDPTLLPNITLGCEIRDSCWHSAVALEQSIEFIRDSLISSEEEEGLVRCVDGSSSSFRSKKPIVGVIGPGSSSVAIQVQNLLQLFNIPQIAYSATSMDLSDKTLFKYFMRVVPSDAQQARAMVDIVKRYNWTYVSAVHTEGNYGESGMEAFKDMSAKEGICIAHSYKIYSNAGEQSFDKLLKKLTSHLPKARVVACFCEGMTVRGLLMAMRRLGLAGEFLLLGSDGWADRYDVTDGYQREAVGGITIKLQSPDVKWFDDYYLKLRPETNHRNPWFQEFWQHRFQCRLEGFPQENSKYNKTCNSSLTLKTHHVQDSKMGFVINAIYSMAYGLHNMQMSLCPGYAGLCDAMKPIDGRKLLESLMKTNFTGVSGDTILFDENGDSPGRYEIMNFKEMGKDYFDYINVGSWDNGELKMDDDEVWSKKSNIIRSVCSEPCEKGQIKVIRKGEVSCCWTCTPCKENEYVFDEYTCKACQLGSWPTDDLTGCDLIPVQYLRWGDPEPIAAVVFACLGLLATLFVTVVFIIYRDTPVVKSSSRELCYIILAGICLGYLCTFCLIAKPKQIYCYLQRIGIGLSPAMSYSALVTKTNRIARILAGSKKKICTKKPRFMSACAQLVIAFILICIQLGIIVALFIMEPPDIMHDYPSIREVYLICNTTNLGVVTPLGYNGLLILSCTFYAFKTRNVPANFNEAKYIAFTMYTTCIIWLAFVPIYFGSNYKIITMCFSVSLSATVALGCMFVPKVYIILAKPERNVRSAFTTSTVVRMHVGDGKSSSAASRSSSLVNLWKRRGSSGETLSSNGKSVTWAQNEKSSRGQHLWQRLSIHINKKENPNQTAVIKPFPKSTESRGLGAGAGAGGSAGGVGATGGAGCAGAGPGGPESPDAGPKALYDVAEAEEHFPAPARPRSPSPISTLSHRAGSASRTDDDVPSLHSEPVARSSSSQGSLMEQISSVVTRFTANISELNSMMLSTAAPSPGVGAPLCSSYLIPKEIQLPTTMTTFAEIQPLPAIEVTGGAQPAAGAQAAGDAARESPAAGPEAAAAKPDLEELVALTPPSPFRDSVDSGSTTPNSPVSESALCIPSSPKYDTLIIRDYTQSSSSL

| SMILES | EC50 |
| --- | --- |
| O=C1c2cc(COc3ccccc3F)nn2CCN1c1ccc(F)cc1 [Example 190] | 145 nM |

same assay, conditions: HEK cells transfected with human mGluR5 (H10H or H12H); in presence of EC20 glutamate; read-out: EC50

| SMILES | EC50 |
| --- | --- |
| Cc1ccc(OCc2cc3n(n2)CCN(c2ccc(F)cc2)C3=O)nc1 [Example 183] | > 30200 nM |
| Cc1ccccc1OCc1cc2n(n1)CCN(c1ccc(F)cc1)C2=O [Example 191] | 427 nM |
| COc1ccnc(OCc2cc3n(n2)CCN(c2ccc(F)cc2)C3=O)c1 [Example 195] | > 10000 nM |
| O=C1c2cc(COc3cnccn3)nn2CCN1c1ccc(F)cc1 [Example 197] | > 10000 nM |
| Cc1cncc(OCc2cc3n(n2)CCN(c2ccc(F)cc2)C3=O)n1 [Example 200] | > 30200 nM |
| Cc1cccc(N2CCn3nc(COc4ccccn4)cc3C2=O)n1 [Example 206] | 1510 nM |
| COc1cccc(N2CCn3nc(COc4ccc(F)cc4)cc3C2=O)c1 [Example 220] | 350 nM |
| Cc1ccccc1N1CCn2nc(COc3ccc(F)cc3)cc2C1=O [Example 223] | 98 nM |

Results, then the compound that gave them:

| EC50 | SMILES |
| --- | --- |
| 115 nM | O=C1c2cc(COc3cccc(F)c3)nn2CCN1c1ccc(F)cn1 [Example 178] |
| 151 nM | O=C1c2cc(COc3ccc(F)cc3)nn2CCN1c1ccc(F)cn1 [Example 179] |
| > 10000 nM | O=C1c2cc(COc3ccc(F)cn3)nn2CCN1c1ccc(F)cc1 [Example 181] |
| > 10000 nM | Cc1cccnc1OCc1cc2n(n1)CCN(c1ccc(F)cc1)C2=O [Example 185] |
| 2190 nM | O=C1c2cc(COc3ncccc3F)nn2CCN1c1ccc(F)cc1 [Example 187] |
| 4900 nM | Cc1cnccc1OCc1cc2n(n1)CCN(c1ccc(F)cc1)C2=O [Example 189] |
| 437 nM | N#Cc1ccnc(OCc2cc3n(n2)CCN(c2ccc(F)cc2)C3=O)c1 [Example 193] |
| > 10000 nM | O=C1c2cc(COc3ncccn3)nn2CCN1c1ccc(F)cc1 [Example 194] |
| 407 nM | COc1cc(N2CCn3nc(COc4ccccn4)cc3C2=O)ccc1F [Example 204] |
| 470 nM | Cc1ccc(N2CCn3nc(COc4ccccn4)cc3C2=O)cc1 [Example 218] |
| 190 nM | COc1ccccc1N1CCn2nc(COc3ccc(F)cc3)cc2C1=O [Example 221] |
| 380 nM | COc1ncccc1N1CCn2nc(COc3ccc(F)cc3)cc2C1=O [Example 229] |

same assay, conditions: HEK cells transfected with human mGluR5 (H10H or H12H); in presence of EC20 glutamate; read-out: pEC50 (converted)

| EC50 | SMILES |
| --- | --- |
| 355 nM | COc1cccc(N2CCn3nc(COc4ccc(F)cc4)cc3C2=O)c1 [Example 220] |
| 100 nM | Cc1ccccc1N1CCn2nc(COc3ccc(F)cc3)cc2C1=O [Example 223] |

same assay, conditions: maximum % effect in concentration-response curve, as percent of response to maximally effective glutamate

| SMILES | Emax |
| --- | --- |
| Cc1ccc(OCc2cc3n(n2)CCN(c2ccc(F)cc2)C3=O)nc1 [Example 183] | 15% |
| O=C1c2cc(COc3ccccc3F)nn2CCN1c1ccc(F)cc1 [Example 190] | 66% |
| Cc1ccccc1OCc1cc2n(n1)CCN(c1ccc(F)cc1)C2=O [Example 191] | 57% |
| COc1ccnc(OCc2cc3n(n2)CCN(c2ccc(F)cc2)C3=O)c1 [Example 195] | 40% |
| O=C1c2cc(COc3cnccn3)nn2CCN1c1ccc(F)cc1 [Example 197] | 58% |
| Cc1cncc(OCc2cc3n(n2)CCN(c2ccc(F)cc2)C3=O)n1 [Example 200] | 21% |
| Cc1cccc(N2CCn3nc(COc4ccccn4)cc3C2=O)n1 [Example 206] | 67% |
| COc1cccc(N2CCn3nc(COc4ccc(F)cc4)cc3C2=O)c1 [Example 220] | 63% |
| Cc1ccccc1N1CCn2nc(COc3ccc(F)cc3)cc2C1=O [Example 223] | 63% |

Continued, values first:

| Emax | SMILES |
| --- | --- |
| 61% | O=C1c2cc(COc3cccc(F)c3)nn2CCN1c1ccc(F)cn1 [Example 178] |
| 60% | O=C1c2cc(COc3ccc(F)cc3)nn2CCN1c1ccc(F)cn1 [Example 179] |
| 52% | O=C1c2cc(COc3ccc(F)cn3)nn2CCN1c1ccc(F)cc1 [Example 181] |
| 51% | Cc1cccnc1OCc1cc2n(n1)CCN(c1ccc(F)cc1)C2=O [Example 185] |
| 60% | O=C1c2cc(COc3ncccc3F)nn2CCN1c1ccc(F)cc1 [Example 187] |
| 45% | Cc1cnccc1OCc1cc2n(n1)CCN(c1ccc(F)cc1)C2=O [Example 189] |
| 53% | N#Cc1ccnc(OCc2cc3n(n2)CCN(c2ccc(F)cc2)C3=O)c1 [Example 193] |
| 50% | O=C1c2cc(COc3ncccn3)nn2CCN1c1ccc(F)cc1 [Example 194] |
| 69% | COc1cc(N2CCn3nc(COc4ccccn4)cc3C2=O)ccc1F [Example 204] |
| 69% | Cc1ccc(N2CCn3nc(COc4ccccn4)cc3C2=O)cc1 [Example 218] |
| 66% | COc1ccccc1N1CCn2nc(COc3ccc(F)cc3)cc2C1=O [Example 221] |
| 66% | COc1ncccc1N1CCn2nc(COc3ccc(F)cc3)cc2C1=O [Example 229] |

system: not given; test: not given; settings: not given

| SMILES | melting point |
| --- | --- |
| Cc1ccc(OCc2cc3n(n2)CCN(c2ccc(F)cc2)C3=O)nc1 [Example 183] | 236.2 °C |
| O=C1c2cc(COc3ccccc3F)nn2CCN1c1ccc(F)cc1 [Example 190] | 183.3 °C |
| Cc1ccccc1OCc1cc2n(n1)CCN(c1ccc(F)cc1)C2=O [Example 191] | 132.8 °C |
| COc1ccnc(OCc2cc3n(n2)CCN(c2ccc(F)cc2)C3=O)c1 [Example 195] | > 300 °C |
| O=C1c2cc(COc3cnccn3)nn2CCN1c1ccc(F)cc1 [Example 197] | 144.8 °C |
| Cc1cncc(OCc2cc3n(n2)CCN(c2ccc(F)cc2)C3=O)n1 [Example 200] | 156.6 °C |
| Cc1cccc(N2CCn3nc(COc4ccccn4)cc3C2=O)n1 [Example 206] | 109.8 °C |
| COc1cccc(N2CCn3nc(COc4ccc(F)cc4)cc3C2=O)c1 [Example 220] | 130.4 °C |
| Cc1ccccc1N1CCn2nc(COc3ccc(F)cc3)cc2C1=O [Example 223] | 148.2 °C |

Second part, the compound after the results:

| melting point | SMILES |
| --- | --- |
| > 300 °C | O=C1c2cc(COc3cccc(F)c3)nn2CCN1c1ccc(F)cn1 [Example 178] |
| > 300 °C | O=C1c2cc(COc3ccc(F)cc3)nn2CCN1c1ccc(F)cn1 [Example 179] |
| 239.4 °C | O=C1c2cc(COc3ccc(F)cn3)nn2CCN1c1ccc(F)cc1 [Example 181] |
| 270.1 °C | Cc1cccnc1OCc1cc2n(n1)CCN(c1ccc(F)cc1)C2=O [Example 185] |
| 165 °C | O=C1c2cc(COc3ncccc3F)nn2CCN1c1ccc(F)cc1 [Example 187] |
| 168.3 °C | Cc1cnccc1OCc1cc2n(n1)CCN(c1ccc(F)cc1)C2=O [Example 189] |
| 202.6 °C | N#Cc1ccnc(OCc2cc3n(n2)CCN(c2ccc(F)cc2)C3=O)c1 [Example 193] |
| 179.5 °C | O=C1c2cc(COc3ncccn3)nn2CCN1c1ccc(F)cc1 [Example 194] |
| 143.9 °C | COc1cc(N2CCn3nc(COc4ccccn4)cc3C2=O)ccc1F [Example 204] |
| > 300 °C | Cc1ccc(N2CCn3nc(COc4ccccn4)cc3C2=O)cc1 [Example 218] |
| 117.3 °C | COc1ccccc1N1CCn2nc(COc3ccc(F)cc3)cc2C1=O [Example 221] |
| 267.4 °C | COc1ncccc1N1CCn2nc(COc3ccc(F)cc3)cc2C1=O [Example 229] |
